The source of these data is patent US11919896B2, “[1,2,4]triazolo[1,5-a]pyridine compound as JAK inhibitor and use thereof” (Zhuhai United Laboratories Co., Ltd., priority 2018, dated 2024).

One data set deals with JAK1 (Homo sapiens (Human), UniProt P23458). In words: In vitro kinase activity test, JAK1(h) enzyme reaction. Format: biochemical.
In the next data set the target is TYK2 (Homo sapiens (Human), UniProt P29597). Description: In vitro kinase activity test, TYK2(h) enzyme reaction. Format: biochemical.
Chain of TYK2 (P29597 whole entry): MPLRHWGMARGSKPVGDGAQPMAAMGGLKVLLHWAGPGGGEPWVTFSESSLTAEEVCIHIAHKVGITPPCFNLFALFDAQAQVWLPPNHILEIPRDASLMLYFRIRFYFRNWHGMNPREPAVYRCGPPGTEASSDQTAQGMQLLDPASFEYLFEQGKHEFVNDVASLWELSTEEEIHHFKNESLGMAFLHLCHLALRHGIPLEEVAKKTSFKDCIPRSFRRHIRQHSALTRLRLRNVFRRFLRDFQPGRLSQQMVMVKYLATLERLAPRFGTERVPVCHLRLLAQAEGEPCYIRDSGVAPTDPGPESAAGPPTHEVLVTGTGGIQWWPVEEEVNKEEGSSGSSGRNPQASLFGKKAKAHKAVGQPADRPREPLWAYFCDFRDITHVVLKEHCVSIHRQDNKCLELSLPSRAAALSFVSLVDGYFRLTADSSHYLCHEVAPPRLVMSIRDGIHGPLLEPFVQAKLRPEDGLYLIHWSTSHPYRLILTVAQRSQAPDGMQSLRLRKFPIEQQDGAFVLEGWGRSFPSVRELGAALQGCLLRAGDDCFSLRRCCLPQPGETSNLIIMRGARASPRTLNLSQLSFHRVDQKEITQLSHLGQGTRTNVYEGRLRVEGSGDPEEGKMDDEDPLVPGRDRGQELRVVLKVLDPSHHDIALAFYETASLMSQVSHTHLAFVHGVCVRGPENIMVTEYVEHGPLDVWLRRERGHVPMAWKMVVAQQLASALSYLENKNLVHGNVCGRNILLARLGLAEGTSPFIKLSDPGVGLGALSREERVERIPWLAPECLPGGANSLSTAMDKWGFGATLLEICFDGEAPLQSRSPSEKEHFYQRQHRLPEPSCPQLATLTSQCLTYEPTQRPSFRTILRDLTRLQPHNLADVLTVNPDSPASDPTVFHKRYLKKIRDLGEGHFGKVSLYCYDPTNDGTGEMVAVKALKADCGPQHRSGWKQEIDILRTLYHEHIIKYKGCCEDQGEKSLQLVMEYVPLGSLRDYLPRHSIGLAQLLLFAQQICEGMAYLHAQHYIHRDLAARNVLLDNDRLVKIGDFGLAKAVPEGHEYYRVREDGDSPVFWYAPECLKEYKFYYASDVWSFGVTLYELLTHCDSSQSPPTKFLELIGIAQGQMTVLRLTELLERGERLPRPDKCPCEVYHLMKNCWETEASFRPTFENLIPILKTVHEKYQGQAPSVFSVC
The target of the next data set is JAK3 (Homo sapiens (Human), UniProt P52333). Description: In vitro kinase activity test, JAK3(h) enzyme reaction. Format: biochemical.
Chain of JAK3 (P52333 whole entry): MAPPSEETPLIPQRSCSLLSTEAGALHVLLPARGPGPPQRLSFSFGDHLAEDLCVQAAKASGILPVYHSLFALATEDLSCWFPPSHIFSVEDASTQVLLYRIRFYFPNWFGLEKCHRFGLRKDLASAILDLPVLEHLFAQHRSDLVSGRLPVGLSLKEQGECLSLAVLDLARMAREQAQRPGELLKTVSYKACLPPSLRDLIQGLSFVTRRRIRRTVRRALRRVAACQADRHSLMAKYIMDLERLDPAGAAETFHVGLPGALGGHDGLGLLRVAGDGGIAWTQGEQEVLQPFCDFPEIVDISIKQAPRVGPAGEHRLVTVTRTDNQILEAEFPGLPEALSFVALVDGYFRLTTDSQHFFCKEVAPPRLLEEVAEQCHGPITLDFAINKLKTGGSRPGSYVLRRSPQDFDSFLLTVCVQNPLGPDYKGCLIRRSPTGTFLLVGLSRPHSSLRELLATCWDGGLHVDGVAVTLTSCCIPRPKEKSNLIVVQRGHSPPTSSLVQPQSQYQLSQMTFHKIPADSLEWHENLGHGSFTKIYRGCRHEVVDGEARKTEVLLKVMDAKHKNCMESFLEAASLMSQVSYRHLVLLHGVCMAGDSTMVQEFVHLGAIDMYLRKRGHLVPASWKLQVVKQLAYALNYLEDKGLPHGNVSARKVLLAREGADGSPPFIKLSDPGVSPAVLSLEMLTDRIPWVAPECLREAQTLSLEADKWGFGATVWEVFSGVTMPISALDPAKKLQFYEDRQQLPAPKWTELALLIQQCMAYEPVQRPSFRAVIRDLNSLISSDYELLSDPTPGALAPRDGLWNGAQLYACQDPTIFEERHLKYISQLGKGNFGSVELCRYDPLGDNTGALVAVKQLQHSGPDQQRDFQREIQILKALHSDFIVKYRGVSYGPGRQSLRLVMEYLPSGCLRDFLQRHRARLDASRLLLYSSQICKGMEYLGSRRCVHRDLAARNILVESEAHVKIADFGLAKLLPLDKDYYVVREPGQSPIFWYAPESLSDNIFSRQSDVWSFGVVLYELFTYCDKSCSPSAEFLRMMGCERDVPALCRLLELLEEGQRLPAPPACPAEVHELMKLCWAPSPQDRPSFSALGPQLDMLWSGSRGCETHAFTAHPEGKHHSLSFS
In a further data set the target is JAK2 (Homo sapiens (Human), UniProt O60674). Description: In vitro kinase activity test, JAK2(h) enzyme reaction. Format: biochemical.
Chain of JAK2 (O60674 whole entry): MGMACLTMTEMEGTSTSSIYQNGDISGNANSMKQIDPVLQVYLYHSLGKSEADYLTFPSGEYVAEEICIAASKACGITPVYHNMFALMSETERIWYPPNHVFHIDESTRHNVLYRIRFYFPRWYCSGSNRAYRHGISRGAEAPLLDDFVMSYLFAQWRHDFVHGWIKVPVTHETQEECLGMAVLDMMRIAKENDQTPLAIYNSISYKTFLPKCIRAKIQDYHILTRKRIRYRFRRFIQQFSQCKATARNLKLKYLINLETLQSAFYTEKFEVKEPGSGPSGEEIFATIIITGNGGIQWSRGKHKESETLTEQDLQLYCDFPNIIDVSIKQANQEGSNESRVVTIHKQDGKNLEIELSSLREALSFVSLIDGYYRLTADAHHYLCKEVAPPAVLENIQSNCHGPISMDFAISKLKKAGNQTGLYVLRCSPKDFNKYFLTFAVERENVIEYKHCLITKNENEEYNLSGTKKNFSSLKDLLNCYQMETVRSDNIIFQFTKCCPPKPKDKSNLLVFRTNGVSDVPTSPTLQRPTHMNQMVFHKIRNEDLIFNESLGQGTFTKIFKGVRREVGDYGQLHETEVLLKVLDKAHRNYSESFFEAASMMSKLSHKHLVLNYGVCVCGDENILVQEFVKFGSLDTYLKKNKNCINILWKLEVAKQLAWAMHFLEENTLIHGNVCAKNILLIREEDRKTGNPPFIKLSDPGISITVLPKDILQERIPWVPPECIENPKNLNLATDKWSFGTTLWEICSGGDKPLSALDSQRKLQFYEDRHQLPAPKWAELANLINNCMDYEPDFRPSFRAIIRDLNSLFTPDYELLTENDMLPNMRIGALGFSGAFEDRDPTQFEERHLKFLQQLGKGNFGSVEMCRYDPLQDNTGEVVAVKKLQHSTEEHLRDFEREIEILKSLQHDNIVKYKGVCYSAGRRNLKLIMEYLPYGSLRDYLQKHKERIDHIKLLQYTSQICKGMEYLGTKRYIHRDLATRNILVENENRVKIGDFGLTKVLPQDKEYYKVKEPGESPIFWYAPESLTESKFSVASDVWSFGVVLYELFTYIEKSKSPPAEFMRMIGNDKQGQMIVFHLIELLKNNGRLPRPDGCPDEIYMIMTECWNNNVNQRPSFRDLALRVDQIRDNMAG
Data set [1] deals with collagen-induced arthritis (CIA) in mice. The data set is classed as in vivo, DBA/1 mice. The arrangement: key to Average clinical score: score 0-4 per limb, max 16 per animal. How it is done:
Experiment 3: In Vivo Efficacy Study of Collagen-Induced Arthritis (CIA) in Mice
1. Type II Collagen/Complete Freund's Adjuvant Immune
Preparation of acetic acid: 2N acetic acid was diluted to 100 mM, filtered by 0.22 micron filter membrane, and stored at 4° C.
Bovine type 2 collagen (CII) was dissolved in 100 mM acetic acid solution, then stored overnight at 4° C. Final concentration of the collagen is 8 mg/ml.
Preparation of emulsion: the overnight stored CII solution was mixed with equal volume of complete Freund's adjuvant, and homogenized on ice on a high-speed homogenizer at 30,000 revolutions per minute for approximately 60 minutes until the solution forms a stable emulsion.
2. Induction of Arthritis:
Mice were randomly divided into different treatment groups. The day for the first immunization is recorded as day 0, and the subsequent days are marked in order.
DBA/1 mice were anesthetized with isoflurane and injected with […] prepared collagen emulsion (containing […] CII) subcutaneously (2-3 cm from the root of the tail). At day 21, the tail was injected with the same volume of collagen emulsion in the same way. The mice in the normal group was not immunized.
3. Designs of Administration and Dosages
At day 28, when average clinical score is about […] with moderate incidence were selected ad randomly divided into 5 treatment groups based on body weights and scores, with each group having 8 mice.
Dexamethasone (Dex.) was used as a reference drug for measuring whether the model was successfully established, with a dose of 0.3 mg/kg (a commonly used dose in a CIA model). […] They were administered twice a day for a total of 14 days.
4. Measuring of Incidence Index of Arthritis
Clinical observation: from 7 days before immunization to the 21st day after immunization, the basic health status and weight changes of DBA/1 mice was observed daily (recorded once a week). After the 22nd day, the health status, the incidence circumstances, and weight changes of the mice was observed every day (recorded at least three times a week) until the end of the experiment.
Clinical scoring: the incidence of the mice was observed every day after boosting the immune function. After the mice was attacked (showing clinical symptoms of arthritis), the incidence was scored from 0-4 as scoring standard according to different levels of the disease (redness, joint deformation). The highest score for each limb is 4, and the highest score for each animal is 16. The scoring was performed three times a week.
The experimental data is expressed as mean standard error (Mean SEM), and the area under the curve (AUC) is analyzed by one-way ANOVA. P<0.05 is considered to be significant.

The subject of data set [2] is adjuvant-induced arthritis rat model. The note with it: AIA rats, 30 mg/kg p.o. bid.
[3] abbreviates: CIA mice, 0.3 mg/kg p.o. qd, day 21.
[4] abbreviates: CIA mice, 0.3 mg/kg p.o. qd, day 24.
Setting [5] is: CIA mice, 0.3 mg/kg p.o. qd, day 27.
[6] abbreviates: CIA mice, 0.3 mg/kg p.o. qd, day 28.
Where [7] appears, read: CIA mice, 0.3 mg/kg p.o. qd, day 29.
Where [8] appears, read: CIA mice, 0.3 mg/kg p.o. qd, day 31.
The mark [9] stands for this setting: CIA mice, 0.3 mg/kg p.o. qd, day 31, listed as Dex.
Setting [10] is: CIA mice, 0.3 mg/kg p.o. qd, day 34.
[11] abbreviates: CIA mice, 0.3 mg/kg p.o. qd, day 36.
Setting [12] is: CIA mice, 0.3 mg/kg p.o. qd, day 38.
[13] abbreviates: CIA mice, 0.3 mg/kg p.o. qd, day 41.

Several values for one entry are separate records, joined by “and”; a condition that tells them apart may be missing. Equal values may be shown once. Read-outs that look alike come from different tables or passages of the source. Marks after values point to notes of the source that are not given here.

Chain of JAK1 (P23458 whole entry): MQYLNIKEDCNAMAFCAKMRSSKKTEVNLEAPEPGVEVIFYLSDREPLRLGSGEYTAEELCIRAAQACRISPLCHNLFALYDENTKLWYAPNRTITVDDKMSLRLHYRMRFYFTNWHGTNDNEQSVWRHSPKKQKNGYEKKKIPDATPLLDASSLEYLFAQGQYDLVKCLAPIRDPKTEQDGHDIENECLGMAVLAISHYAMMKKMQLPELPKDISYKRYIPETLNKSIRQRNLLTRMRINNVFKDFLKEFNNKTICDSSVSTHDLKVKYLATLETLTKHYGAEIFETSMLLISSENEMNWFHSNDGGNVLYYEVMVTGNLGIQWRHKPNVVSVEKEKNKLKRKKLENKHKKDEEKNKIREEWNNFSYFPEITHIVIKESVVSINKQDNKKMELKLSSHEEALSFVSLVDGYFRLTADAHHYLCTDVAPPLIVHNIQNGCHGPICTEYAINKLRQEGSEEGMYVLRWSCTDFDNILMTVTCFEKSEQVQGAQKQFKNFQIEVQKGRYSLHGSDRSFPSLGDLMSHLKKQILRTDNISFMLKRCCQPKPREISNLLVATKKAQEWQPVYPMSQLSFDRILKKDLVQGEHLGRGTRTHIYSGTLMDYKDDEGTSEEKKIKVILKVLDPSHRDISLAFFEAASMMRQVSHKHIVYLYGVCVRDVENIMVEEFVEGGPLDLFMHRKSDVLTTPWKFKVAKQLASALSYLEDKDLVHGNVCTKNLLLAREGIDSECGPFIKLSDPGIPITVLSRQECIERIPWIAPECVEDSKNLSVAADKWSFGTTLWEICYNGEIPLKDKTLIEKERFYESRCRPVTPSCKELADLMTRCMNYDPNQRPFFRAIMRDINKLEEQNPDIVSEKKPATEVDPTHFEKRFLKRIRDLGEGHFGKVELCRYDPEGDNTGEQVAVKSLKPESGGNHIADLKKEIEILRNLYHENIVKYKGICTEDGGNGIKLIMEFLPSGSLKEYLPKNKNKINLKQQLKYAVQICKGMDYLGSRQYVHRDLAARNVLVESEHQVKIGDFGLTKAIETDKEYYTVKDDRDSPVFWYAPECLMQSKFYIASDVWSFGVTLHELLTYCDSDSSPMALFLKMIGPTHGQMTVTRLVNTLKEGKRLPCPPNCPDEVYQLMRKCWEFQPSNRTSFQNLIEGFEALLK
Experimental for JAK1: (§1) Experiment 1: In Vitro Test of Activities of Jak1, Jak2, Jak3, Tyk2 Kinases
(§2) Recombinant human JAK1, JAK2, JAK3, Tyk2 protease, most of the apparatuses and reagents were supplied by Eurofins (UK).
(§3) All the compounds were prepared into 100% DMSO solution and the concentration reached final measured concentration of 50 times. The test compound was diluted by a 3-fold concentration gradient, and the final concentration was 9 concentrations from 10 μM to 0.001 μM. The content of DMSO in the detect reaction was 2%. The stock solution of this compound was added into wells as a first component, then the other components were added as the following detailed process.
Enzyme Reaction of JAK1(h)
Mixture of Mg/ATP was added to start reaction, which was stopped by adding 0.5% phosphoric acid after 40 minutes incubation at room temperature.
Experimental for JAK2: as §1, §2, §3
Enzyme Reaction of JAK2(h)
(§4) Mixture of Mg/ATP was added to start reaction, which was stopped by adding 0.5% phosphoric acid after 40 minutes incubation.
Experimental for JAK3: as §2, §3
Enzyme Reaction of JAK3(h)
as §4
Experimental for TYK2: as §2, §3
Enzyme Reaction of TYK2(h)
as §4

Broadly, the IC50 is the midpoint of a concentration-inhibition curve. As for `CC(C)(C#N)C(=O)N1CC2(CCC(c3cccc4nc(NC(=O)C5CC5)nn34)CC2)C1` [Compound 1-15], the IC50 is 20 nM against JAK1, 106 nM against TYK2 and 9670 nM against JAK3.
The matching figures for `N#CCN1CC2(CCC(c3cccc4nc(NC(=O)C5CC5)nn34)CC2)C1` [Compound 1-16]: 114 nM, 581 nM and above 10000 nM.
Turning to `N#CCCN1CC2(CCC(c3cccc4nc(NC(=O)C5CC5)nn34)CC2)C1` [Compound 1-17], the IC50 on JAK1 was 65 nM; at TYK2 it was 371 nM; against JAK3 it was above 10000 nM.
For the compound `N#CCC(=O)N1CC2(CCC(F)(c3cccc4nc(NC(=O)C5CC5)nn34)CC2)C1` [Compound 4-6], the IC50 on JAK1 amounted to 170 nM; at JAK2, 2010 nM; on TYK2, 307 nM; against JAK3, 8450 nM.
In the case of `O=C(Nc1nc2cccc(C3CCC4(CC3)CCN(C(=O)[C@@H]3CC3(F)F)C4)n2n1)C1CC1` (some centres unmarked) [Compound 5-7], the IC50 stood at 31 nM on JAK1, 324 nM on JAK2, 67 nM against TYK2 and 5760 nM at JAK3.
The matching figures for `O=C(Nc1nc2cccc(C3CCC4(CC3)CCN(C(=O)[C@@H]3CC3(F)F)C4)n2n1)C1CC1` (some centres unmarked) [Compound 5-8]: 75 nM, 789 nM, 692 nM and 7350 nM.
With `O=C(Nc1nc2cccc([C@H]3CCC4(CCN(C(=O)[C@@H]5CC5(F)F)CC4)C3)n2n1)C1CC1` [Compound 6-7], the IC50 was 63 nM on JAK1, 829 nM on TYK2 and 9390 nM against JAK3.
For `O=C(Nc1nc2cccc([C@@H]3CCC4(CCN(C(=O)[C@@H]5CC5(F)F)CC4)C3)n2n1)C1CC1` [Compound 6-8] the same measures were 381 nM, 570 nM and above 10000 nM.
The matching figures for `O=C(Nc1nc2cccc([C@H]3CCC4(C3)CN(C(=O)[C@@H]3CC3(F)F)C4)n2n1)C1CC1` [Compound 7-7]: 63 nM, 830 nM and above 10000 nM.
For `O=C(Nc1nc2cccc([C@@H]3CCC4(C3)CN(C(=O)[C@@H]3CC3(F)F)C4)n2n1)C1CC1` [Compound 7-8] the same measures were 176 nM, 404 nM and above 10000 nM.
On to `O=C(Nc1nc2cccc(C3CCC4(CC3)CN(C(=O)[C@@H]3CC3(F)F)C4)n2n1)[C@H]1CC1(F)F` [Compound 8-6], for which the IC50 against JAK1 is 14 nM; against JAK2 it was 110 nM; against TYK2 it was 127 nM; against JAK3 it was 7640 nM.
Turning to `N#CCN1CC2(CCC(c3cccc4nc(NC(=O)[C@H]5CC5(F)F)nn34)CC2)C1` [Compound 8-9], the IC50 against JAK1 is 52 nM; on JAK2 it was 3670 nM; against TYK2, 1330 nM; against JAK3, above 10000 nM.
For `O=C(Nc1nc2cccc(C3CCC4(CC3)CN(C(=O)[C@@H]3CC3(F)F)C4)n2n1)[C@@H]1CC1(F)F` [Compound 9-3] the same measures were 7 nM, 292 nM, 105 nM and above 10000 nM.
In the case of `N#CCN1CC2(CCC(c3cccc4nc(NC(=O)[C@@H]5CC5(F)F)nn34)CC2)C1` [Compound 9-6], the IC50 at JAK1 was 432 nM; at JAK2, 1170 nM; against TYK2, 1390 nM; against JAK3, above 10000 nM.
For `N#CCC(=O)N1CCC2(CCC(c3c(F)ccc4nc(NC(=O)C5CC5)nn34)CC2)CC1` [Compound 10-5] the same measures were 336 nM, 812 nM, 430 nM and 5410 nM.
For `C[C@@H]1C[C@H]2[C@@H]3CCC4=CC(=O)C=C[C@]4(C)[C@@]3(F)[C@@H](O)C[C@]2(C)[C@@]1(O)C(=O)CO` [Dexamethasone], the “Inhibition rate (clinical score AUC vs blank group)” value in data set [1] (CIA mice, 0.3 mg/kg p.o. qd) amounted to 97.3%; in data set [1] (CIA mice, 0.3 mg/kg p.o. qd, listed as Dex), 97.3%. Also, the “AUC ± SEM of clinical score (AUC of incidence)” value in data set [1] (CIA mice, 0.3 mg/kg p.o. qd, administration period) amounted to 1.38 ± 0.81. The Average clinical score was 0.00 ± 0.00 in data set [1] (setting [3]); 0.00 ± 0.00 in data set [1] (setting [4]); “about 0.3” in data set [1] (setting [5]); 0.25 ± 0.16 in data set [1] (CIA mice, 0.3 mg/kg p.o. qd, day 27, listed as Dex); 0.50 ± 0.27 in data set [1] (setting [6]); 0.25 ± 0.16 in data set [1] (setting [7]). Besides, the Average clinical score in data set [1] (setting [8]) is recorded as 0; in data set [1] (setting [9]), 0.00 ± 0.00; in data set [1] (setting [10]), 0.00 ± 0.00; in data set [1] (setting [11]), 0.00 ± 0.00; in data set [1] (setting [12]), 0.00 ± 0.00; in data set [1] (setting [13]) it was 0.00 ± 0.00. For the same compound, the Incidence of arthritis came to 0% in data set [1] (setting [3]); 0% in data set [1] (setting [4]); 25% in data set [1] (setting [5]); 38% in data set [1] (setting [6]); 25% in data set [1] (setting [7]); 0% in data set [1] (setting [8]). In addition, the Incidence of arthritis in data set [1] (setting [9]), in data set [1] (setting [10]), in data set [1] (setting [11]), in data set [1] (setting [12]) and in data set [1] (setting [13]) was 0% each time. Also, in data set [1] (mouse, in vivo, po, 0.3 mg/kg), the “Effect on the weight of mice (comparison between groups)” value is “largest weight loss”.
Take `O=C(Nc1nc2cccc(-c3ccc(CN4CCS(=O)(=O)CC4)cc3)n2n1)C1CC1` [Filgotinib]: the “Inhibition rate of total pathological score” value in data set [2] was determined as 5%. The “Clinical scoring, average” value in data set [2] (day 13) is on record as 6.0; in data set [2] (day 15), 6.6; in data set [2] (day 17), 6.3; in data set [2] (day 20), 5.8**; in data set [2] (day 22), 5.5***; in data set [2] (day 24), 5.4****. The “Feet volume, average” value is 1.9 mL in data set [2] (day 13); 2.2 mL in data set [2] (day 15); 2.0** mL in data set [2] (day 17); 1.9**** mL in data set [2] (day 20); 2.0**** mL in data set [2] (day 22); 2.0**** mL in data set [2] (day 24). In data set [2] (day 27), the “Feet volume, average” value was 1.91 mL and 1.9**** mL. Moreover, in data set [2] (day 27, right hind leg), the “Pathology Scoring: Bone resorption” value came to 3.6 ± 0.2. The “Pathology Scoring: Pannus formation” value in data set [2] (day 27, right hind leg) is 3.9 ± 0.1. In data set [2] (day 27, right hind leg), the “Pathology Scoring: Total score” value was 15.2±0.49 and 15.2 ± 0.5. Moreover, the “Pathology Scoring: articular injury” value in data set [2] (day 27, right hind leg) stood at 3.7 ± 0.2.
